Where two headings read alike, the source gives them in different places.
Tested on: NF-kB activation induced by TNFα
Assay: TNFα Luciferase assay: inhibition of NF-kB activation induced by TNFα in HEK293/NF-kB luciferase cells
Assay type: cell-based
Conditions: 25 ng/ml of TNF-α for four hours, quadruplicate, read-out: IC50, concentration at which NF-kB activation was reduced by 50%
Protocol: Determination of Inhibition of NF-kB Activation Induced by TNFα . . . In Vitro Assay
The ability of a compound disclosed herein to inhibit NFkB activation induced by TNFα was determined using the TNFα Luciferase assay. The HEK293/NF-kB luciferase cell line was obtained by cotransfection of pNFkB-luc vector with pHyg (Panomics, CA, USA) followed by hygromycin selection. HEK293/NFkB Luciferase cells were grown in DMEM medium supplemented with 10% fetal bovine serum, 100 U/ml of penicillin, 100 ng/ml of streptomycin/Fungizone, and 100 μg/ml of hygromycin B as the selecting agent. HEK293 NFkB Luciferase cells were grown in T75 flasks (Nunc™ Cell Culture Treated EasYFlasks™) in a cell culture incubator at 37° C. and 5% CO2.
Confluent T75 cell culture flasks (approximately 8-10 million of cells per flask) were washed with 10 ml of sterile PBS (without calcium and magnesium) under a biosafety cabinet. After aspiration of the PBS with a sterile glass pipette, the layer of cells (for each T75 flask) was covered with 1 ml of TrypLE™ Express without phenol red (Gibco) at room temperature. After one minute of incubation, HEK293 were mechanically resuspended in the TrypLE by tapping the side of the flask. The cells were then resuspended with 10 ml of pre-warmed complete culture medium and transferred to a conical tube. Cells were centrifuged for 5 minutes at 4000 rpm (1000 g) at room temperature. The cellular pellet was resuspended with 24 ml of pre-warmed cell culture media and […] of cell suspension (approximately 80,000 cells per well) was plated per well in 96-well cell culture plates (Costar #3599, Corning, N.Y., USA) using a multichannel pipette and reversed pipetting to prevent air bubble formation. After plating, the cells were maintained overnight in the cell culture incubator before being treated. For each 96 well cell culture plate, 8 wells were used as “control wells” (only culture medium added) and to 8 wells only TNFα was added. The NF-kB Luciferase reporter cell line was challenged with 25 ng/ml of TNF-α for four hours in the presence and absence (control conditions) of a dose range of the different compounds to be tested. For each compound, a dose range of concentrations was tested in quadruplicate and used to determine an IC50.
Luciferase activity was monitored using the Luc-Screen® Extended-Glow Luciferase Reporter Gene Assay System by chemoluminescence according to the instruction of the manufacturer (Invitrogen) and a BioTek Synergy HT plate reader (BioTek Instruments, VT, USA).

Compound	IC50 (Homo sapiens, 4 h)	IC50
CCCCn1cccc1C(=O)N[C@@H](Cc1ccccc1)C(=O)N1CC=CCC1c1cccnc1 (stereo partly drawn) [Compound 61, 1-butyl-N-((2S)-1-oxo-3-phenyl-1-(6-(pyridin-3-yl)-5,6-dihydropyridin-1(2H)-yl)propan-2-yl)-1H-pyrrole-2-carboxamide]	0.708 µM	
CCCC(=O)Nc1cccc(C(=O)N[C@@H](Cc2ccccc2)C(=O)N2CCCCC2c2cccnc2)c1 (stereo partly drawn) [Compound 63, 3-butyramido-N-((2S)-1-oxo-3-phenyl-1-(2-(pyridin-3-yl)piperidin-1-yl)propan-2-yl)benzamide]	0.0584 µM	
CCCC(=O)Nc1cccc(C(=O)N[C@@H](Cc2ccc3ccccc3c2)C(=O)N2CC=CCC2c2cccnc2)c1 (stereo partly drawn) [Compound 65, 3-butyramido-N-((2S)-3-(naphthalen-2-yl)-1-oxo-1-(6-(pyridin-3-yl)-5,6-dihydropyridin-1(2H)-yl)propan-2-yl)benzamide]	0.704 µM	
CCCC(=O)Nc1cccc(C(=O)N[C@@H](CC2CCCCC2)C(=O)N2CC=CCC2c2cccnc2)c1 (stereo partly drawn) [Compound 66, 3-butyramido-N-((2S)-3-cyclohexyl-1-oxo-1-(6-(pyridin-3-yl)-5,6-dihydropyridin-1(2H)-yl)propan-2-yl)benzamide]	0.346 µM	
CCCC(=O)Nc1cccc(C(=O)NC(Cc2ccccc2)C(=O)N2CC=CCC2c2cc3ccccc3nc2Cl)c1 (centres unmarked) [Compound 67, 3-butyramido-N-(1-(2-(2-chloroquinolin-3-yl)-3,6-dihydropyridin-1(2H)-yl)-1-oxo-3-phenylpropan-2-yl)benzamide]	1.7 µM	
CCCC(=O)Nc1cccc(C(=O)NC(C)C(=O)N2CC=CCC2c2cnc3ccccc3c2)c1 (centres unmarked) [Compound 68, 3-butyramido-N-(1-oxo-1-(2-(quinolin-3-yl)-3,6-dihydropyridin-1(2H)-yl)propan-2-yl)benzamide]	0.85 µM	
mixture of 2-((S)-1-oxo-1-((S)-6-(pyridin-3-yl)-5,6-dihydropyridin-1(2H)-yl)butan-2-yl)isoindoline-1,3-dione and 2-((R)-1-oxo-1-((R)-6-(pyridin-3-yl)-5,6-dihydropyridin-1(2H)-yl)butan-2-yl)isoindoline-1,3-dione [Compound 5]		925 µM

Continued, values first:

IC50 (Homo sapiens, 4 h)	IC50	Compound
0.185 µM		CC[C@@H](C)C(=O)Nc1cccc(C(=O)N[C@@H](Cc2ccccc2)C(=O)N2CC=CCC2c2cccnc2)c1 (stereo partly drawn) [Compound 58, 3-((R)-2-methylbutanamido)-N-((2S)-1-oxo-3-phenyl-1-(6-(pyridin-3-yl)-5,6-dihydropyridin-1(2H)-yl)propan-2-yl)benzamide]
0.216 µM		CCCCNc1cccc(C(=O)N[C@@H](Cc2ccccc2)C(=O)N2CC=CCC2c2cccnc2)c1 (stereo partly drawn) [Compound 60, 3-(butylamino)-N-((2S)-1-oxo-3-phenyl-1-(6-(pyridin-3-yl)-5,6-dihydropyridin-1(2H)-yl)propan-2-yl)benzamide]
0.285 µM		CCCC(=O)Nc1cccc(C(=O)N[C@@H](Cc2cccc3ccccc23)C(=O)N2CC=CCC2c2cccnc2)c1 (some centres unmarked) [Compound 64, 3-butyramido-N-((2 S)-3-(naphthalen-1-yl)-1-oxo-1-(6-(pyridin-3-yl)-5,6-dihydropyridin-1 (2H)-yl)propan-2-yl)benzamide]
	750 µM	mixture of 2-((S)-1-oxo-1-((R)-6-(pyridin-3-yl)-5,6-dihydropyridin-1(2H)-yl)butan-2-yl)isoindoline-1,3-dione and 2-((R)-1-oxo-1-((S)-6-(pyridin-3-yl)-5,6-dihydropyridin-1(2H)-yl)butan-2-yl)isoindoline-1,3-dione [Compound 6]

Source: patent US20220081415A1, “Amino Acid Derivatives for the Treatment of Inflammatory Diseases” (The Roskamp Institute, priority 2019, published 2022)
